Source: patent US11045456B2, “Compositions and methods for treating COPD and other inflammatory conditions” (Georgia State University Research Foundation, Inc., priority 2015, dated 2021)

Tests used:
PDE4A and 4C = experiment: Expression of other PDE4 family members (PDE4A, 4C) in BEAS-2B cells; assay type: cell-based, human; conditions: NTHi or roflumilast
Text: (§1) Cell culture. All media described below were supplemented with 10% fetal bovine serum (Sigma-Aldrich). Human bronchial epithelial BEAS-2B cells were maintained in RPMI medium (Life Technologies) (ATCC® CRL-9609™). Human primary bronchial epithelial NHBE (Lonza) cells were maintained in bronchial epithelial growth media (BEGM) supplemented with BEGM SingleQuots (Jono et al., J. Biol. Chem. 277(47):45547-45557, 2002). BEAS-2B cells stably expressing human PDE4B2 (PDE4B2-stable cells) were obtained by plasmid transfection following Geneticin selection (300 μg/mL). Cells were cultured in a humidified atmosphere of 5% CO2 at 37° C.

p65 or PKA-Cβ = experiment: Nuclear expression level of p65 or PKA-Cβ in BEAS-2B cells; assay type: cell-based, human
Procedure: Subcellular fractionation. Cells were washed twice and […] with ice cold PBS and centrifuged at 3,000×g for 5 min. The cells were then suspended with Buffer A (10 mM HEPES at pH7.4, 10 mM KCl, 0.1 mM EDTA, 0.1 mM EGTA, 1 mM DTT, supplemented with 1 mM Na3VO4 and PIC) and incubated on ice for 10 min (Schreiber et al., Nucleic Acids Res. 17(15):6419, 1989). The cells were lysed by adding NP40 (0.5%) and vortexing for 15 sec. then centrifuged at 3,000×g for 5 min before the supernatants were removed (cytosol fraction). Precipitates were resuspended in Buffer B (20 mM HEPES at pH7.5, 5 mM NaCl, 1 mM EDTA, […], 1 mM DTT, supplemented with 1 mM Na3VO4 and PIC) and incubated on ice for 10 min. before vortexing and centrifuging at 16,000×g for 15 min to recover the supernatants (nuclear fraction). Western blot. Whole-cell extracts and mouse lung tissue extracts were recovered with lysis buffer (50 mM Tris-HCl at pH7.4, 1% NP40, 0.25% deoxycholate, 150 mM NaCl, 1 mM EDTA, 1 mM NaF, supplemented with 1 mM Na3VO4 and PIC). For PDE4B protein, cell extracts were recovered with Buffer A as described above. Cell or tissue extracts were separated on 8% SDS-PAGE gels and transferred to polyvinylidene difluoride (PVDF) membrane (GE Healthcare Life Sciences). The membrane was blocked with a solution of TBS containing 0.1% Tween 20 (TBS-T) and 5% non-fat dry milk. […]

p65 and PKA-Cβ = experiment: Co-immunoprecipitation of p65 and PKA-Cβ in BEAS-2B cells; assay type: cell-based, human; conditions: BEAS-2B cells transfected with p65 and PKA-Cβ; co-treatment of roflumilast with NTHi
Procedure: Immunoprecipitation. Cell extracts were incubated with 1 μg of primary antibodies overnight at 4° C., followed by a 2 h incubation with protein G PLUS-agarose beads (Santa Cruz Biotechnology). Immunoprecipitates were then suspended in a sample buffer, separated on 8% SDS-PAGE gels, transferred to PVDF membrane, and detected by immunoblot analysis as described above.

PDE4B [1] = experiment: PDE4B mRNA expression in lung tissues of NTHi-inoculated mice; conditions: mice, Rof 5 mg/kg i.p. 2 hours before intratracheal NTHi 5×10^7 cfu per lung, after 5 hours
PDE4B2 [2] = experiment: PDE4B2 protein expression (Western blot) in airway epithelial cell extracts; assay type: cell-based, human; conditions: NTHi and roflumilast
Procedure: Western blot. Whole-cell extracts and mouse lung tissue extracts were recovered with lysis buffer (50 mM Tris-HCl at pH7.4, 1% NP40, 0.25% deoxycholate, 150 mM NaCl, 1 mM EDTA, 1 mM NaF, supplemented with 1 mM Na3VO4 and PIC). For PDE4B protein, cell extracts were recovered with Buffer A as described above. Cell or tissue extracts were separated on 8% SDS-PAGE gels and transferred to polyvinylidene difluoride (PVDF) membrane (GE Healthcare Life Sciences). The membrane was blocked with a solution of TBS containing 0.1% Tween 20 (TBS-T) and 5% non-fat dry milk. The membrane was then incubated in a 1:1,000-1:2,000 dilution of a primary antibody in 5% BSA-TBS-T. After washing (×3) with TBS-T, the membrane was incubated with a 1:5,000 dilution of the corresponding secondary antibody in 2.5% non-fat dry milk-TBS-T. Respective proteins were visualized using Amersham ECL Prime Regent (GE Healthcare Life Sciences).

NF-κB promoter = experiment: IKKβ-CA-induced NF-κB promoter activity (luciferase) in PDE4B2-transfected cells; assay type: cell-based, human; conditions: up to 10 μM
Procedure: Plasmids, transfections and luciferase assay. […] Empty vector was used as a control and was also added where necessary to ensure an equivalent amount of input DNA. All transient transfections were carried out in triplicate using TRANSIT-LT1® reagent (Minis) following the manufacturer's instruction.

PDE4B [3] = experiment: PDE4B mRNA expression (Q-PCR) in BEAS-2B cells stimulated with NTHi; assay type: cell-based, human; conditions: for PDE4B mRNA expression: BEAS-2B, relative to control
Procedure: (§2) Bacterial strains and culture condition. Clinical isolates of NTHi strain 12 were used in this study (Ishinaga et al., EMBO J., 26(4):1150-1162, 2007). Bacteria were grown on chocolate agar plates at 37° C. in an atmosphere of 5% CO2 overnight and subsequently inoculated in brain heart infusion (BHI) broth supplemented with 3.5 μg/mL NAD and hemoglobin (BD Biosciences). After overnight incubation, the bacteria were subcultured into fresh broth and the log phase bacteria, monitored by measurement of optical density (OD) value, were washed and suspended in DMEM for in vitro cell experiments and in isotonic saline for in vivo animal experiments. For all in vitro experiments except the dose dependent experiment, NTHi was treated at multiplicity of infection (MOI) of 50.
as §1

p65 = p65 phosphorylation by Phos-tag PAGE in BEAS-2B cells; assay type: cell-based, human; conditions: roflumilast as co-treatment with NTHi
Procedure: Phos-tag PAGE. Recombinant p65 proteins or nuclear extracts recovered without EDTA/EGTA were separated by SDS-PAGE, with 6% gels containing 50 μM Mn^2+-Phos-tag Acrylamide and transferred to PVDF membrane according to the manufacture's instructions (Kinoshita et al., Mol. Cell. Proteomics 5(4):749-757, 2006.

PDE4B2 [4] = experiment: PDE4B2 expression (RT-PCR) in BEAS-2B cells; assay type: cell-based, human
Procedure: as §2, §1
Plasmids, transfections and luciferase assay. The expression plasmids, constitutively active forms of IKKα (IKKα-CA, S176E/S180E) and IKKβ (IKKβ-CA, S177E/S181E) and a dominant negative form of IκBα (IκBα-DN, S32A/S36A) were previously described (Shuto et al., Proc. Natl. Acad. Sci. USA, 98(15):8774-8779, 2001; Ishinaga et al., supra). Luciferase reporter construct of NF-κB (pGL4.32) was purchased from Promega. Human PDE4B2, p65 (RelA) and PKA-Cβ1/2 cDNA sequences were generated and inserted into the BamHI and HindIII sites of the pcDNA3.1/mycHis(−) vector. Mutant p65 and PDE4B2-D392A were generated by using PRIMESTAR® Max (Takara). Empty vector was used as a control and was also added where necessary to ensure an equivalent amount of input DNA. All transient transfections were carried out in triplicate using TRANSIT-LT1® reagent (Minis) following the manufacturer's instruction.

PDE4B [5] = experiment: PDE4B mRNA expression (Q-PCR) in primary NHBE cells stimulated with NTHi; assay type: cell-based, human; conditions: Rof 0.1 μM 1 hour, then 1.5-hour NTHi
Procedure: as §2
as §1, with “Cells were cultured in a humidified atmosphere of 5% CO2 at 37° C.” left out

`O=C(Nc1c(Cl)cncc1Cl)c1ccc(OC(F)F)c(OCC2CC2)c1` [roflumilast] was tested, and the “expression of PDE4A and 4C” value (PDE4A and 4C) was “not up-regulated”, the “nuclear expression level of p65 or PKA-Cβ” value (p65 or PKA-Cβ) was “did not affect” and the “interaction of p65 and PKA-Cβ” value (p65 and PKA-Cβ) was “enhanced”. For the same molecule, the “PDE4B mRNA expression in lung tissues” value (PDE4B [1]) was “synergistically enhanced”, the “PDE4B mRNA expression in lung tissues” value (PDE4B [1]; listed as Rof) was “significantly elevated” and the “~70-kDa PDE4B isoform (PDE4B2 protein)” value (PDE4B2 [2]) was “induced an increase”. For the same molecule, the “IKKβ-CA-induced NF-κB promoter activity” value (NF-κB promoter; cells overexpressing PDE4B2-WT or PDE4B2-D392A) was “unable to fully inhibit”, the “IKKβ-CA-induced NF-κB promoter activity” value (NF-κB promoter; cells transfected with PDE4B2-D392A) was “unable to fully inhibit” and the “PDE4B expression at the mRNA level” value (PDE4B [3]; BEAS-2B cells, roflumilast with NTHi, Q-PCR, dose-dependent) was “synergized with NTHi to up-regulate PDE4B expression”. For the same molecule, the “PDE4B mRNA expression” value (PDE4B [3]; Rof 0.1 μM 1 h, then 1.5-hour NTHi at MOI of 25, 50, and 100) was “increased”, the “PDE4B mRNA expression” value (PDE4B [3]; Rof 0.01, 0.1, and 1 μM 1 h, then 1.5-hour NTHi) was “increased” and the “phosphorylation of p65 (induction)” value (p65) was “induced phosphorylation of p65”. The “expression of PDE4B2” value (PDE4B2 [4]; BEAS-2B, Rof 0.1 μM with NTHi or TNF-α (10 ng/mL), semi-quantitative RT-PCR) was “synergistically up-regulated”, the PDE4B2 expression (PDE4B2 [4]; cells transfected with p65 mutants S468A, S529A and S536A but not S276A, roflumilast and NTHi) was “synergistically enhanced” and the PDE4B2 expression (PDE4B2 [4]; in IKKβ-CA- but not IKKα-CA-transfected BEAS-2B cells) was “synergistically enhanced”. For the same molecule, the PDE4B2 expression (PDE4B2 [4]; p65-transfected cells) was “synergistically enhanced” and the “PDE4B mRNA expression” value (PDE4B [5]) was “increasing PDE4B mRNA significantly”.
